Measurements published in paper doi:10.1101/2022.03.17.484770v1 (biorxiv, 2022).

Biological target: T1, IRI1/LHT1 (Arabidopsis thaliana, UniProt Q9FKS8)
T1 sequence (Q9FKS8 1-446): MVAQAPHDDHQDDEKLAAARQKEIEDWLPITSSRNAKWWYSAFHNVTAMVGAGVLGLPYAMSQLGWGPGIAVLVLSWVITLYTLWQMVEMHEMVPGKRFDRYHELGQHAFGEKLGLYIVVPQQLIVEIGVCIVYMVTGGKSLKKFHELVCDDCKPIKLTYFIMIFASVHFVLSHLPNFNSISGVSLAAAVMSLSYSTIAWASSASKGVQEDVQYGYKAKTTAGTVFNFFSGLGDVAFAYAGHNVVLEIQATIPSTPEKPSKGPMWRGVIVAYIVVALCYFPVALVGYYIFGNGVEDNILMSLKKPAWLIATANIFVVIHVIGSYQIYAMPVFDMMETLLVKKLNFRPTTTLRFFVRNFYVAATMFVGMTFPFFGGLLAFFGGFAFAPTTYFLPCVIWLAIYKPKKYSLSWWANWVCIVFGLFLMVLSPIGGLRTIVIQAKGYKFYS
Assay: inhibition of […]-L-Ala uptake in yeast
Format: cell-based

Compound	Ki [µM]
N[C@@H](CO)CC(=O)O [RBH, R-β-homoserine]	39.2
CC(N)CC(=O)O (racemic) [BABA, β-amino butyric acid]	24.7
